Results: patent publication US20220296566A1, “COMBINATION PRODUCT CONTAINING LIMONOID COMPOUND AND ALPHA-GLUCOSIDASE INHIBITOR” (ZHEJIANG YANGSHENGTANG INSTITUTE OF NATURAL MEDICATION CO., …, priority 2019, published 2022)

Tests used:
db/db mice = test: Blood glucose in mouse type II diabetes model, db/db mice (Example 4); format: in vivo; conditions: single agent 0.2 g/kg per day by gavage, two weeks, 1 h after last administration, mean ± SD
Source text: Effects of limonoid compound, acarbose or combination thereof on blood glucose and insulin in mouse type II diabetes model
In the present embodiment, the limonoid compound was selected from nomilin, deacetylnomilin, nomilin acid, deacetylnomilin acid glycoside, and acarbose single administration group, nomilin single administration group, deacetylnomilin single administration group, nomilin acid single administered group, deacetylnomilin acid glycoside single administration group, and respective combination thereof with acarbose administration groups were set.
Conditions for experimental feeding: as type II diabetes model mice, 6-week-old SPF-grade db/db mice were purchased from the Nanjing Model Biology Institute, and subjected to experimental feeding after 7 days of preliminary feeding. […]
Gavage doses: nomilin at a dose of 0.2 g/kg was gavaged per day for the nomilin group, deacetylnomilin at a dose of 0.2 g/kg was gavaged per day for the deacetylnomilin group, nomilin acid at a dose of 0.2 g/kg was gavaged per day for the nomilin acid group, deacetylnomilin acid glycoside at a dose of 0.2 g/kg was gavaged per day for the deacetylnomilin acid glycoside group, acarbose at a dose of 0.2 g/kg was gavaged per day for the acarbose group, nomilin at a dose of 0.1 g/kg and acarbose at a dose of 0.1 g/kg were simultaneously gavaged per day for the nomilin combination group, nomilin acid at a dose of 0.1 g/kg and acarbose at a dose of 0.1 g/kg were simultaneously gavaged per day for the nomilin acid combination group, deacetylnomilin at a dose of 0.1 g/kg and acarbose at a dose of 0.1 g/kg were simultaneously gavaged per day for the deacetylnomilin combination group, deacetylnomilin acid glycoside at a dose of 0.1 g/kg and acarbose at a dose of 0.1 g/kg were simultaneously gavaged per day for the deacetylnomilin acid glycoside combination group, the gavage volume was 10 mL/kg, and the normal group and the model group were administrated with 10 mL/kg of distilled water. […] The data were expressed as mean and standard deviation. […]

STZ mice = test: Blood glucose in mouse type II diabetes model with pancreatic islet damage and obesity, STZ plus high-fat diet (Example 5); format: in vivo; conditions: STZ + high-fat diet ICR mice; single agent 0.5 g/kg per day by gavage, two weeks; 1 h after last administration; mean ± SD
Source text: Effects of limonoid compound, acarbose or combination thereof on blood glucose in mouse type II diabetes model with pancreatic islet damage and obesity
In this example, a mouse model of type II diabetes with pancreatic islet damage and obesity was established by multiple modeling ICR mice with a small dose of streptozotocin (STZ), following with continuous high-fat diets (referring to literature: Zhang Jiyuan et al, Study on the effect of three plant extracts on improving glucose and lipid metabolism in type 2 diabetic mice, Food and Machinery, 2016, 32 (12): 142-147). […]
Experimental grouping: 15 male mice were randomly selected as the normal control group, and the remaining mice were subjected to a high-fat diet (high-fat diet formula: cholesterol 1%, egg yolk powder 10%, lard oil 10%, and basic feed 79%, for establishing an obesity mouse model) for consecutive 4 weeks and intraperitoneal injection of STZ at a dose of 35mg/kg for three consecutive days. After one week, the mice were subject to 24 hours of fasting and water deprivation, their fasting blood glucose was measured, and the mice with a blood glucose level of 15 to 25 mmol/L were selected and undifferentiatedly grouped and used in the experiment, continuously subjected to the high-fat diet, 15 mice in each group, and subjected to blood sampling and detection of indicators after 2 weeks of administration. […]

For `C[C@H]1O[C@H](O[C@H]2[C@H](O)[C@@H](O)[C@@H](O[C@H]3[C@H](O)[C@@H](O)C(O)O[C@@H]3CO)O[C@@H]2CO)[C@H](O)[C@@H](O)[C@@H]1N[C@H]1C=C(CO)[C@@H](O)[C@H](O)[C@H]1O` (some centres unmarked) [Acarbose, acarbose], the Blood glucose value (db/db mice) was 13.6 ± 2.9 mmol/L and the Blood glucose value (STZ mice) was 15.7 ± 3.0 mmol/L.
